# How the values were obtained:
# Assay type in all cases: biochemical
# KAT6A = biological target: T1, KAT6A (Homo sapiens, UniProt Q92794); experiment: HotSpot KAT assay, KAT6A; conditions: for inhibition at 200 µM: read-out: % inhibition at 200 μM KAT6A (10 nM), NI = no inhibition
# T1 construct: KAT6A (aa 488–778, 10 nM); purchased Reaction Biology Corporation
# Experimental: (§1) The effects of the compounds on other KATs were determined using the HotSpot KAT assay (Reaction Biology Corporation, Malvern, PA, USA) according to the supplier’s procedure. The recombinant catalytic domains of human KAT2A (aa 323–837, 15 nM), KAT2B (aa 492–658, 25 nM), KAT3B (aa 1284–1672, 1 nM), KAT6A (aa 488–778, 10 nM), KAT6B (aa 657–1069, 10 nM), and full length human KAT5 (25 nM) and KAT7 (25 nM) were used. Each enzyme was incubated with the relevant histone peptide [H3 peptide for KAT2A, KAT2B, KAT3B, KAT6A, and KAT7 (2.5–5 μM, depending on the KAT isoform); H2A peptide for KAT5 (1.25 μM); H4 peptide for KAT6B (2.5 μM)] as a substrate and radio-isotope-labeled [^3H]Acetyl-CoA (0.2–1.5 μM, depending on the KAT isoform) as an acetyl donor in the assay buffer [50 mM Tris–HCl (pH 8.0), 50 mM NaCl, 0.1 mM EDTA, 1 mM DTT, 0.1 mM PMSF, 1% DMSO] for 1 h at 30 °C in the presence or absence of various compounds (1% DMSO final) titrated in a 2-fold serial dilution starting at 200 μM. Histone peptide acetylation was assessed by liquid scintillation counting using a Tri-Carb 2800TR Liquid Scintillation Analyzer (Perkin Elmer). Experiments were performed in biological triplicates. Signal reduction compared to control was plotted (as inhibition percentage) as a function of compound concentration. In cases in which an IC50 was calculated, the values were fitted by nonlinear regression (GraphPad Prism 8.0).
# KAT2B = biological target: T2, KAT2B (Homo sapiens, UniProt Q92831); experiment: HotSpot KAT assay, KAT2B; conditions: enzyme 25 nM; NI = no inhibition at 200 μM; mean ± SD of three independent experiments
# T2 construct: KAT2B (aa 492–658, 25 nM); purchased Reaction Biology Corporation
# T2 sequence (Q92831 492-658): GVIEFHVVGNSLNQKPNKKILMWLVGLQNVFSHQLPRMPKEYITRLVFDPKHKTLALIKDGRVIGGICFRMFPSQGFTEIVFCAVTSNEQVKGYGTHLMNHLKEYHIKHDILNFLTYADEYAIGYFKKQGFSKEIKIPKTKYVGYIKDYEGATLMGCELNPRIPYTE
# Experimental: as §1
# KAT8 = biological target: T3, KAT8 (Homo sapiens, UniProt Q9H7Z6); experiment: Radioactive KAT8 inhibition assay; conditions: read-out: IC50 KAT8 (5 nM); enzyme 5 nM; 2-fold serial dilution from 200 μM; NI = no inhibition at 200 μM; mean ± SD of three independent experiments
# T3 construct: using the previously purified KAT8 (173–458, 5 nM); 6xHis tag with TEV protease cleavage site (N, cleaved yes); made in house; host or cells: E. coli BL21(DE3)
# T3 sequence (Q9H7Z6 173-458): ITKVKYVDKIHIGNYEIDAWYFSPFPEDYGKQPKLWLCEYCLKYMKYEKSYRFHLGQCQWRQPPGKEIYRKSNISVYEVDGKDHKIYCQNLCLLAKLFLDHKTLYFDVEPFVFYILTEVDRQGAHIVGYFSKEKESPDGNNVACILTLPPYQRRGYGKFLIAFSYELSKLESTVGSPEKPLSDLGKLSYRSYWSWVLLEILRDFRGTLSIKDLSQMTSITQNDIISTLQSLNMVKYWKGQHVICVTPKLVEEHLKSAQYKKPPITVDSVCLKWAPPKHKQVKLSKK
# How it was run: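 Purified KAT8 preincubated 20 min at rt with inhibitor (2-fold dilutions from 200 μM, 1% DMSO), then [3H]Ac-CoA and biotinylated peptide added for 4 h at rt. Product captured on streptavidin scintillant plates and counted. IC50 by nonlinear regression of % inhibition, biological triplicates.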
# KDAC3 = KDAC3 (Homo sapiens, UniProt O15379); experiment: KDAC inhibition assay, KDAC3; conditions: mean of three technical replicates
# KDAC3, sequence (O15379 whole entry, canonical isoform): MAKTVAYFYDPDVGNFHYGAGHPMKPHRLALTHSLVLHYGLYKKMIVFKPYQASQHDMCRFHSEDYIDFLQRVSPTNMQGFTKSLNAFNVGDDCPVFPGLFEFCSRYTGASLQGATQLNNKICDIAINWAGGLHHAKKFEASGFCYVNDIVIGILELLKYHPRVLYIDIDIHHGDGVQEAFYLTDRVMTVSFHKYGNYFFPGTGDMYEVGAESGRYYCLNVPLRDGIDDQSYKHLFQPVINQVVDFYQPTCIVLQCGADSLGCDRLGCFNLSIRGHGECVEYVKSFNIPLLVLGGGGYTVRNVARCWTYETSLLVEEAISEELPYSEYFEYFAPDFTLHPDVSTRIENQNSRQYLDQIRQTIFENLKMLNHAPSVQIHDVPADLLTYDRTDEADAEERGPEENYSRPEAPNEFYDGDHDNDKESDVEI
# KDAC3, sequence (Q9Y618 395-489 partner limits assumed): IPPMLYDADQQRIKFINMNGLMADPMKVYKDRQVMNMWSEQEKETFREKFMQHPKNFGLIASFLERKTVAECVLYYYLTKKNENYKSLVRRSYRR
# Experimental: (§2) KDAC1, 2, 3 6, and 8 inhibition assays were performed as described previously.[52] Briefly, the relevant human recombinant KDAC was diluted in an assay buffer with the following composition: 150 mM NaCl, 25 mM Tris–HCl (pH 8.0), 2.7 mM KCl, and 1 mM MgCl2; BSA (0.1 mg/mL) was also added in the case of KDAC1. Forty microliters of this solution were added to 10 μL of each inhibitor ([…]) and 50 μL of KDAC Assay substrate (Boc-Lys-(Ac)-AMC, 7–100 μM final concentration, depending on the KDAC isoform), and the resulting solution was mixed. […] After thorough mixing of the resulting solution, the plate was covered and incubated at 37 °C for 25 min and the fluorescence (λemission = 460 nm; λexcitation = 390 nm) was measured on a EnSight Multimode Plate Reader (Perkin Elmer). The shown values are average of three technical replicates ± SD.
# KAT5 = biological target: T4, KAT5 (Homo sapiens, UniProt Q92993); experiment: HotSpot KAT assay, KAT5; conditions: for inhibition at 200 µM: read-out: % inhibition at 200 μM KAT5 (25 nM), NI = no inhibition
# T4 construct: full length human KAT5 (25 nM) and KAT7 (25 nM) were used; purchased Reaction Biology Corporation
# T4 sequence (Q92993 whole entry): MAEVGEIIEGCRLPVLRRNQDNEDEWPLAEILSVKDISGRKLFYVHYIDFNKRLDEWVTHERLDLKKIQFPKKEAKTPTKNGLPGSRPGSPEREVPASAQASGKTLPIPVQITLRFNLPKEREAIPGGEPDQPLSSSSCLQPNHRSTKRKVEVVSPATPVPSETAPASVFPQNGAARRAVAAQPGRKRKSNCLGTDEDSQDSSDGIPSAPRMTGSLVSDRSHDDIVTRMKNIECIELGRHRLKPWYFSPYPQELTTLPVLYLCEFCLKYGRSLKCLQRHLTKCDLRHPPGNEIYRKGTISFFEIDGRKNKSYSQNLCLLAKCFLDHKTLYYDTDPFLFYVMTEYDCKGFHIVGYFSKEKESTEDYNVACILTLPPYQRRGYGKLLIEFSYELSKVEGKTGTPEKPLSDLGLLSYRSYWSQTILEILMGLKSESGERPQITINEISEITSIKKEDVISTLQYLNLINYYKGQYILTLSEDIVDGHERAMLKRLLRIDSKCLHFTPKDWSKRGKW
# Experimental: as §1
# KDAC1 = KDAC1 (Homo sapiens, UniProt Q13547); experiment: KDAC inhibition assay, KDAC1; conditions: mean of three technical replicates
# KDAC1, sequence (Q13547 whole entry): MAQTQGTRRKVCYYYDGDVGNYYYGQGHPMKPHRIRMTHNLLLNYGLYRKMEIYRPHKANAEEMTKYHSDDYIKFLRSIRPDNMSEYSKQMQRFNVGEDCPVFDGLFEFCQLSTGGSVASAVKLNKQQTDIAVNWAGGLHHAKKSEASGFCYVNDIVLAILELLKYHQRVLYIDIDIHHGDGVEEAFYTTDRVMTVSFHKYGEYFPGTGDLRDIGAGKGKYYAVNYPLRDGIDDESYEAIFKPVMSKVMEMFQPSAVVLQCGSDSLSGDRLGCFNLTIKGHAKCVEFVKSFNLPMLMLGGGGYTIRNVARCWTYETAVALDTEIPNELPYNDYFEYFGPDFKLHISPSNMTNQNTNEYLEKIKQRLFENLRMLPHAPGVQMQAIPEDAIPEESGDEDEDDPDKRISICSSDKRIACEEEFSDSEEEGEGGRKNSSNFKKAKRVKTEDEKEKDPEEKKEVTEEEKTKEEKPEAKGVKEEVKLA
# Experimental: as §2
# KAT6B = biological target: T5, KAT6B (Homo sapiens, UniProt Q8WYB5); experiment: HotSpot KAT assay, KAT6B; conditions: for inhibition at 200 µM: read-out: % inhibition at 200 μM KAT6B (10 nM), NI = no inhibition
# T5 construct: KAT6B (aa 657–1069, 10 nM); purchased Reaction Biology Corporation
# T5 sequence (Q8WYB5 657-1069): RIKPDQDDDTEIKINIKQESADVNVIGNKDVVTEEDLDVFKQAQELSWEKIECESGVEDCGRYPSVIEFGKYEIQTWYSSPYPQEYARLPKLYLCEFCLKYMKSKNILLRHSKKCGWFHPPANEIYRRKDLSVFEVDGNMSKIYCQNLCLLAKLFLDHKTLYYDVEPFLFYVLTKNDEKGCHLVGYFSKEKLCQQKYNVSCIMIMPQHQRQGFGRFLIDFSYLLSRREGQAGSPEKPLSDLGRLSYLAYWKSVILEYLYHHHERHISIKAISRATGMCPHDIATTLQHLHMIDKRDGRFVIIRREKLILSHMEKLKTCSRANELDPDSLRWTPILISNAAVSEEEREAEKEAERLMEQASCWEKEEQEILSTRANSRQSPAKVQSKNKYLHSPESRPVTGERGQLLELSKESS
# Experimental: as §1
# KDAC2 = KDAC2 (Homo sapiens, UniProt Q92769); experiment: KDAC inhibition assay, KDAC2; conditions: mean of three technical replicates
# KDAC2, sequence (Q92769 whole entry): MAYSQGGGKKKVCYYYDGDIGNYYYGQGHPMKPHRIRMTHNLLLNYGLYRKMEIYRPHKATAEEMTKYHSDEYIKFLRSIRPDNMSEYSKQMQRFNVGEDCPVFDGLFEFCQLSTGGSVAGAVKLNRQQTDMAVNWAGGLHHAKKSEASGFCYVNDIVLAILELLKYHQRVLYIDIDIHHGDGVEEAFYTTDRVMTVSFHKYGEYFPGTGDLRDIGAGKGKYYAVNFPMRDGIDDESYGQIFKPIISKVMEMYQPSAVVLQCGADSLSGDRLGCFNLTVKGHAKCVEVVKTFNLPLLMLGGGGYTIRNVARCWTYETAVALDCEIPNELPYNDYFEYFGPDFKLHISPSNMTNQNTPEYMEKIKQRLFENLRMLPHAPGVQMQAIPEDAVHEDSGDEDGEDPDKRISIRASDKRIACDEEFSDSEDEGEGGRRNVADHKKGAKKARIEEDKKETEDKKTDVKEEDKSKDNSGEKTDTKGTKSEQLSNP
# Experimental: as §2
# T1 sequence (Q92794 488-778): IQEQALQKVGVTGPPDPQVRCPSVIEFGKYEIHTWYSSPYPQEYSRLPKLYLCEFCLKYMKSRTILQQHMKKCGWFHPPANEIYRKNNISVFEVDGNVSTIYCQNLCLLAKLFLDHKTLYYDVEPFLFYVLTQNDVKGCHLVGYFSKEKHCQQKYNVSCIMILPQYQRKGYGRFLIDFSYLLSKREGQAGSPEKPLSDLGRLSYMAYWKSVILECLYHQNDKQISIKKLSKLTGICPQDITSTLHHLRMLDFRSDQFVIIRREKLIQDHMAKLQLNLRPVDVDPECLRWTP
Structure (SMILES),inhibition at 200 µM (KAT6A) [%],IC50 (KAT2B) [µM],IC50 (KAT8) [µM],inhibition at 50 µM (KDAC3) [%],inhibition at 100 µM (KDAC3) [%],inhibition at 200 µM (KAT5) [%],inhibition at 50 µM (KDAC1) [%],inhibition at 100 µM (KDAC1) [%],inhibition at 200 µM (KAT6B) [%],inhibition at 50 µM (KDAC2) [%],inhibition at 100 µM (KDAC2) [%],IC50 KAT2B (25 nM) (KAT2B),"IC50 (KAT6A; read-out: IC50 KAT6A (10 nM), control compound) [µM]","IC50 (KAT5; control compound, read-out: IC50 KAT5 (25 nM)) [µM]","IC50 (KAT6B; read-out: IC50 KAT6B (10 nM), control compound) [µM]"
"O=C(O)c1ccc(N2N=C(c3ccccc3)/C(=C/c3ccc[nH]3)C2=O)cc1 [Compound 34, (Z)-4-(4-((1H-Pyrrol-2-yl)methylene)-5-oxo-3-phenyl-4,5-dihydro-1H-pyrazol-1-yl)benzoic Acid]",20.9 ± 0.4,> 200,8.1 ± 0.5,0.02,0.6,18.5 ± 1.3,0.04,0.5,19.6 ± 1,0.03,0.4,–,–,–,–
"CC1=NN(c2ccc(C(=O)O)cc2)C(=O)/C1=C\c1ccc[nH]1 [Compound 19, (Z)-4-(4-((1H-Pyrrol-2-yl)methylene)-3-methyl-5-oxo-4,5-dihydro-1H-pyrazol-1-yl)benzoic Acid]",0,> 200,12.1 ± 0.6,0.5,1.1,11.3 ± 0.3,0.03,0.3,4.8 ± 1.6,0.01,0.7,no inhibition at 200 μM,–,–,–
"CC1=NN(c2ccc(C(=O)O)cc2)C(=O)/C1=C\c1ccc(-c2cc(C)c(C)cc2[N+](=O)[O-])o1 [VII (C646), reference compound]",–,> 200,> 200,54.5,86.2,–,0.7,1.3,–,75.4,87.6,–,15,18.3,5.6
